# Reference: ChEMBL document CHEMBL1201861, “Genomics of Drug Sensitity in Cancer screening data, Wellcome Trust Sanger Institute”
# Assays:
# Test in all cases: cells
# CP66-MEL = assay type: functional, cell-based, Homo sapiens;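 also: growth inhibition of CP66-MEL cells determined in a cell viability assay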
# Description: SANGER: Inhibition of human CP66-MEL cell growth in a cell viability assay.
# CTV-1 = assay type: functional, cell-based, Homo sapiens;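 also: growth inhibition of the cell line, read out with a cell viability assay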
# Description: SANGER: Inhibition of human CTV-1 cell growth in a cell viability assay.
# CW-2 = assay type: functional, cell-based, Homo sapiens;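 also: growth inhibition of CW-2 cells, read out by a cell viability assay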
# Description: SANGER: Inhibition of human CW-2 cell growth in a cell viability assay.
# DB = assay type: functional, cell-based, Homo sapiens
# Description: SANGER: Inhibition of human DB cell growth in a cell viability assay.
# DOHH-2 = assay type: functional, cell-based, Homo sapiens;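 also: growth inhibition of human DOHH-2 cells, read out with a cell viability assay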
# Description: SANGER: Inhibition of human DOHH-2 cell growth in a cell viability assay.
# EKVX = assay type: functional, cell-based, Homo sapiens;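 also: growth inhibition of human EKVX cells, read out with a cell viability assay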
# Description: SANGER: Inhibition of human EKVX cell growth in a cell viability assay.
# ES6 = assay type: functional, cell-based, Homo sapiens;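 also: growth inhibition of human ES6 cells, read out with a cell viability assay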
# Description: SANGER: Inhibition of human ES6 cell growth in a cell viability assay.
# ETK-1 = assay type: functional, cell-based, Homo sapiens;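 also: growth inhibition of human ETK-1 cells, read out with a cell viability assay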
# Description: SANGER: Inhibition of human ETK-1 cell growth in a cell viability assay.
# EW-18 = assay type: functional, cell-based, Homo sapiens;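 also: growth inhibition of EW-18 cells, read out by a cell viability assay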
# Description: SANGER: Inhibition of human EW-18 cell growth in a cell viability assay.
# EOL1 = assay type: functional, cell-based, Homo sapiens;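 also: growth inhibition of EoL-1 cells, read out by a cell viability assay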
# Description: SANGER: Inhibition of human EoL-1-cell cell growth in a cell viability assay.
# GCIY = assay type: functional, cell-based, Homo sapiens;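 also: growth inhibition of the human GCIY cell line, read out by a cell viability assay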
# Description: SANGER: Inhibition of human GCIY cell growth in a cell viability assay.
# HT-144 = assay type: functional, cell-based, Homo sapiens
# Description: SANGER: Inhibition of human HT-144 cell growth in a cell viability assay.
# HuTu80 = assay type: functional, cell-based, Homo sapiens, HUTU-80;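 also: growth inhibition of HuTu80 human cells, determined with a cell viability readout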
# Description: SANGER: Inhibition of human HUTU-80 cell growth in a cell viability assay.
# IST-MEL1 = assay type: functional, cell-based, Homo sapiens;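 also: growth inhibition of the cell line, read out with a cell viability assay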
# Description: SANGER: Inhibition of human IST-MEL1 cell growth in a cell viability assay.
# JVM-3 = assay type: functional, cell-based, Homo sapiens;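 also: growth inhibition of human JVM-3 cells, read out with a cell viability assay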
# Description: SANGER: Inhibition of human JVM-3 cell growth in a cell viability assay.
# KGN = assay type: functional, cell-based, Homo sapiens;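 also: growth inhibition of KGN cells, read out with a cell viability assay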
# Description: SANGER: Inhibition of human KGN cell growth in a cell viability assay.
# KM12 = assay type: functional, cell-based, Homo sapiens;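 also: KM12 cell growth inhibition, read out with a cell viability assay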
# Description: SANGER: Inhibition of human KM12 cell growth in a cell viability assay.
# KNS-42 = assay type: functional, cell-based, Homo sapiens;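 also: growth inhibition of KNS-42 cells, read out with a cell viability assay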
# Description: SANGER: Inhibition of human KNS-42 cell growth in a cell viability assay.
# KY821 = assay type: functional, cell-based, Homo sapiens;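 also: growth inhibition of human KY821 cells, read out by a cell viability assay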
# Description: SANGER: Inhibition of human KY821 cell growth in a cell viability assay.
# LB2241-RCC = assay type: functional, cell-based, Homo sapiens;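 also: cell viability assay measuring how strongly the cultured human renal carcinoma line is prevented from growing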
# Description: SANGER: Inhibition of human LB2241-RCC cell growth in a cell viability assay.
# Lu-65 = assay type: functional, cell-based, Homo sapiens;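 also: growth inhibition of Lu-65 cancer cells, read out by a cell viability assay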
# Description: SANGER: Inhibition of human LU-65 cell growth in a cell viability assay.
# MEG-01 = assay type: functional, cell-based, Homo sapiens;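 also: growth inhibition of MEG-01 cells, read out by a cell viability assay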
# Description: SANGER: Inhibition of human MEG-01 cell growth in a cell viability assay.
# MHH-PREB-1 = assay type: functional, cell-based, Homo sapiens;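 also: cell viability assay measuring inhibition of proliferation of human MHH-PREB-1 cells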
# Description: SANGER: Inhibition of human MHH-PREB-1 cell growth in a cell viability assay.
# MN-60 = assay type: functional, cell-based, Homo sapiens;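 also: growth inhibition of the MN-60 cell line, determined with a cell viability assay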
# Description: SANGER: Inhibition of human MN-60 cell growth in a cell viability assay.
# MOLT-4 = assay type: functional, cell-based, Homo sapiens;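 also: growth inhibition of MOLT-4 cells, determined with a cell viability readout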
# Description: SANGER: Inhibition of human MOLT-4 cell growth in a cell viability assay.
# MS-1 = assay type: functional, cell-based, Homo sapiens;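 also: growth inhibition of MS-1 cells, read out by cell viability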
# Description: SANGER: Inhibition of human MS-1 cell growth in a cell viability assay.
# MV4-11 = assay type: functional, cell-based, Homo sapiens, MV-4-11;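 also: cell viability readout measuring growth inhibition of human MV-4-11 cells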
# Description: SANGER: Inhibition of human MV-4-11 cell growth in a cell viability assay.
# MZ1-PC = assay type: functional, cell-based, Homo sapiens;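 also: cell viability assay measuring growth inhibition of human MZ1-PC cells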
# Description: SANGER: Inhibition of human MZ1-PC cell growth in a cell viability assay.
# NB5 = assay type: functional, cell-based, Homo sapiens;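 also: growth inhibition of NB5 cells, read out as cell viability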
# Description: SANGER: Inhibition of human NB5 cell growth in a cell viability assay.
# NB6 = assay type: functional, cell-based, Homo sapiens;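 also: growth inhibition of NB6 cells, read out by a cell viability assay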
# Description: SANGER: Inhibition of human NB6 cell growth in a cell viability assay.
# NCI-H1092 = assay type: functional, cell-based, Homo sapiens;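 also: cell growth inhibition measured with a cell viability assay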
# Description: SANGER: Inhibition of human NCI-H1092 cell growth in a cell viability assay.
# NCI-H1155 = assay type: functional, cell-based, Homo sapiens;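 also: cell growth inhibition measured by a viability assay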
# Description: SANGER: Inhibition of human NCI-H1155 cell growth in a cell viability assay.
# NEC8 = assay type: functional, cell-based, Homo sapiens;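 also: growth inhibition of human NEC8 cells, read out by a cell viability assay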
# Description: SANGER: Inhibition of human NEC8 cell growth in a cell viability assay.
# NKM-1 = assay type: functional, cell-based, Homo sapiens;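 also: growth inhibition of NKM-1 cells, read out with a cell viability assay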
# Description: SANGER: Inhibition of human NKM-1 cell growth in a cell viability assay.
# NOMO-1 = assay type: functional, cell-based, Homo sapiens;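 also: growth inhibition of human NOMO-1 cells measured by a cell viability assay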
# Description: SANGER: Inhibition of human NOMO-1 cell growth in a cell viability assay.
# OMC-1 = assay type: functional, cell-based, Homo sapiens;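 also: growth inhibition of the OMC-1 cell line, measured by a cell viability assay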
# Description: SANGER: Inhibition of human OMC-1 cell growth in a cell viability assay.
# RKO = assay type: functional, cell-based, Homo sapiens;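 also: growth inhibition of human RKO cells, read out with a cell viability assay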
# Description: SANGER: Inhibition of human RKO cell growth in a cell viability assay.
# RXF 393 = assay type: functional, cell-based, Homo sapiens;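 also: growth inhibition of human RXF 393 cells, read out with a cell viability assay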
# Description: SANGER: Inhibition of human RXF393 cell growth in a cell viability assay.
# SF-268 = assay type: functional, cell-based, Homo sapiens;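 also: growth inhibition of SF-268 cells determined with a cell viability assay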
# Description: SANGER: Inhibition of human SF268 cell growth in a cell viability assay.
# SK-N-FI = assay type: functional, cell-based, Homo sapiens;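 also: cell viability assay measuring growth inhibition of human SK-N-FI cells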
# Description: SANGER: Inhibition of human SK-N-FI cell growth in a cell viability assay.
# SW684 = assay type: functional, cell-based, Homo sapiens;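 also: growth inhibition of human SW684 cells, measured by a cell viability assay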
# Description: SANGER: Inhibition of human SW684 cell growth in a cell viability assay.
# SW982 = assay type: functional, cell-based, Homo sapiens;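 also: growth inhibition of SW982 cells, read out with a cell viability assay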
# Description: SANGER: Inhibition of human SW982 cell growth in a cell viability assay.
# 8-MG-BA = assay type: functional, cell-based, Homo sapiens;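 also: growth inhibition of 8-MG-BA cells, read out with a cell viability assay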
# Description: SANGER: Inhibition of human 8-MG-BA cell growth in a cell viability assay.
# BB65-RCC = assay type: functional, cell-based, Homo sapiens;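 also: growth inhibition of the cell line, measured with a cell viability assay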
# Description: SANGER: Inhibition of human BB65-RCC cell growth in a cell viability assay.
# BT-474 = assay type: functional, cell-based, Homo sapiens
# Description: SANGER: Inhibition of human BT-474 cell growth in a cell viability assay.
# TE-12 = assay type: functional, cell-based, Homo sapiens;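 also: growth inhibition of TE-12 cells, read out by a cell viability assay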
# Description: SANGER: Inhibition of human TE-12 cell growth in a cell viability assay.
# TGBC24TKB = assay type: functional, cell-based, Homo sapiens;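 also: growth inhibition of human TGBC24TKB cells, read out with a cell viability assay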
# Description: SANGER: Inhibition of human TGBC24TKB cell growth in a cell viability assay.
# TGW = assay type: functional, cell-based, Homo sapiens;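 also: growth inhibition of human TGW cells, read out with a cell viability assay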
# Description: SANGER: Inhibition of human TGW cell growth in a cell viability assay.
# no-10 = assay type: functional, cell-based, Homo sapiens;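 also: growth inhibition of no-10 cells, read out with a cell viability assay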
# Description: SANGER: Inhibition of human no-10 cell growth in a cell viability assay.
# COLO-668 = assay type: functional, cell-based, Homo sapiens
# Description: SANGER: Inhibition of human COLO-668 cell growth in a cell viability assay.
molecule,measurement,setting,value
N[C@@H](CSC(c1ccccc1)(c1ccccc1)c1ccccc1)C(=O)O [S-TRITYL-L-CYSTEINE],IC50,"CP66-MEL; Homo sapiens, CP66-MEL",3.44 µM
same,IC50,"CTV-1; Homo sapiens, CTV-1",0.788 µM
same,IC50,"CW-2; Homo sapiens, CW-2",> 5.12 µM
same,IC50,"DB; Homo sapiens, DB",> 5.12 µM
same,IC50,"DOHH-2; Homo sapiens, DOHH-2",0.867 µM
same,IC50,"EKVX; Homo sapiens, EKVX",> 5.12 µM
same,IC50,"ES6; Homo sapiens, ES6",> 5.12 µM
same,IC50,"ETK-1; Homo sapiens, ETK-1",5.04 µM
same,IC50,"EW-18; Homo sapiens, EW-18",> 5.12 µM
same,IC50,"EOL1; Homo sapiens, EOL1",1.19 µM
same,IC50,"GCIY; Homo sapiens, GCIY",1.82 µM
same,IC50,"HT-144; Homo sapiens, HT-144",0.31 µM
same,IC50,"HuTu80; Homo sapiens, HuTu80",0.546 µM
same,IC50,"IST-MEL1; Homo sapiens, IST-MEL1",> 5.12 µM
same,IC50,"JVM-3; Homo sapiens, JVM-3",> 5.12 µM
same,IC50,"KGN; Homo sapiens, KGN",0.622 µM
same,IC50,"KM12; Homo sapiens, KM12",4.67 µM
same,IC50,"KNS-42; Homo sapiens, KNS-42",2.58 µM
same,IC50,"KY821; Homo sapiens, KY821",1.78 µM
same,IC50,"LB2241-RCC; Homo sapiens, LB2241-RCC",> 5.12 µM
same,IC50,"Lu-65; Homo sapiens, Lu-65",> 5.12 µM
same,IC50,"MEG-01; Homo sapiens, MEG-01",1.8 µM
same,IC50,"MHH-PREB-1; Homo sapiens, MHH-PREB-1",> 5.12 µM
same,IC50,"MN-60; Homo sapiens, MN-60",> 5.12 µM
same,IC50,"MOLT-4; Homo sapiens, MOLT-4",4.29 µM
same,IC50,"MS-1; Homo sapiens, MS-1",2.47 µM
same,IC50,"MV4-11; Homo sapiens, MV4-11",0.381 µM
same,IC50,"MZ1-PC; Homo sapiens, MZ1-PC",1.63 µM
same,IC50,"NB5; Homo sapiens, NB5",> 5.12 µM
same,IC50,"NB6; Homo sapiens, NB6",3.91 µM
same,IC50,"NCI-H1092; Homo sapiens, NCI-H1092",> 5.12 µM
same,IC50,"NCI-H1155; Homo sapiens, NCI-H1155",3.8 µM
same,IC50,"NEC8; Homo sapiens, NEC8",2.69 µM
same,IC50,"NKM-1; Homo sapiens, NKM-1",> 5.12 µM
same,IC50,"NOMO-1; Homo sapiens, NOMO-1",> 5.12 µM
same,IC50,"OMC-1; Homo sapiens, OMC-1",> 5.12 µM
same,IC50,"RKO; Homo sapiens, RKO",0.677 µM
same,IC50,"RXF 393; Homo sapiens, RXF 393",> 5.12 µM
same,IC50,"SF-268; Homo sapiens, SF-268",3.15 µM
same,IC50,"SK-N-FI; Homo sapiens, SK-N-FI",3.16 µM
same,IC50,"SW684; Homo sapiens, SW684",> 5.12 µM
same,IC50,"SW982; Homo sapiens, SW982",1.07 µM
same,IC50,"8-MG-BA; Homo sapiens, 8-MG-BA",> 5.12 µM
same,IC50,"BB65-RCC; Homo sapiens, BB65-RCC",2.38 µM
same,IC50,"BT-474; Homo sapiens, BT-474",> 5.12 µM
same,IC50,"TE-12; Homo sapiens, TE-12",> 5.12 µM
same,IC50,"TGBC24TKB; Homo sapiens, TGBC24TKB",2.22 µM
same,IC50,"TGW; Homo sapiens, TGW",> 5.12 µM
same,IC50,no-10; Homo sapiens,1.96 µM
same,IC50,"COLO-668; Homo sapiens, COLO-668",> 5120 nM
CCN(CC)CCNC(=O)c1c(C)[nH]c(/C=C2\C(=O)Nc3ccc(F)cc32)c1C [SUNITINIB],IC50,"CP66-MEL; Homo sapiens, CP66-MEL",> 8 µM
same,IC50,"CTV-1; Homo sapiens, CTV-1",1.73 µM
same,IC50,"CW-2; Homo sapiens, CW-2",> 8 µM
same,IC50,"DB; Homo sapiens, DB",> 8 µM
same,IC50,"DOHH-2; Homo sapiens, DOHH-2",2.33 µM
same,IC50,"EKVX; Homo sapiens, EKVX",> 8 µM
same,IC50,"ES6; Homo sapiens, ES6",0.981 µM
same,IC50,"ETK-1; Homo sapiens, ETK-1",1.29 µM
same,IC50,"EW-18; Homo sapiens, EW-18",> 8 µM
same,IC50,"EOL1; Homo sapiens, EOL1",< 0.0312 µM
same,IC50,"GCIY; Homo sapiens, GCIY",> 8 µM
same,IC50,"HT-144; Homo sapiens, HT-144",> 8 µM
same,IC50,"HuTu80; Homo sapiens, HuTu80",> 8 µM
same,IC50,"IST-MEL1; Homo sapiens, IST-MEL1",> 8 µM
same,IC50,"JVM-3; Homo sapiens, JVM-3",> 8 µM
same,IC50,"KGN; Homo sapiens, KGN",2.6 µM
same,IC50,"KM12; Homo sapiens, KM12",0.35 µM
same,IC50,"KNS-42; Homo sapiens, KNS-42",> 8 µM
same,IC50,"KY821; Homo sapiens, KY821",2.8 µM
same,IC50,"LB2241-RCC; Homo sapiens, LB2241-RCC",> 8 µM
same,IC50,"Lu-65; Homo sapiens, Lu-65",> 8 µM
same,IC50,"MEG-01; Homo sapiens, MEG-01",1.84 µM
same,IC50,"MHH-PREB-1; Homo sapiens, MHH-PREB-1",5.32 µM
same,IC50,"MN-60; Homo sapiens, MN-60",7.54 µM
same,IC50,"MOLT-4; Homo sapiens, MOLT-4",3.4 µM
same,IC50,"MS-1; Homo sapiens, MS-1",3.84 µM
same,IC50,"MV4-11; Homo sapiens, MV4-11",< 0.0312 µM
same,IC50,"MZ1-PC; Homo sapiens, MZ1-PC",7.3 µM
same,IC50,"NB5; Homo sapiens, NB5",> 8 µM
same,IC50,"NB6; Homo sapiens, NB6",> 8 µM
same,IC50,"NCI-H1092; Homo sapiens, NCI-H1092",> 8 µM
same,IC50,"NCI-H1155; Homo sapiens, NCI-H1155",> 8 µM
same,IC50,"NEC8; Homo sapiens, NEC8",> 8 µM
same,IC50,"NKM-1; Homo sapiens, NKM-1",0.0985 µM
same,IC50,"NOMO-1; Homo sapiens, NOMO-1",4.34 µM
same,IC50,"OMC-1; Homo sapiens, OMC-1",> 8 µM
same,IC50,"RKO; Homo sapiens, RKO",> 8 µM
same,IC50,"RXF 393; Homo sapiens, RXF 393",> 8 µM
same,IC50,"SF-268; Homo sapiens, SF-268",3.33 µM
same,IC50,"SK-N-FI; Homo sapiens, SK-N-FI",> 8 µM
same,IC50,"SW684; Homo sapiens, SW684",> 8 µM
same,IC50,"SW982; Homo sapiens, SW982",4.55 µM
same,IC50,"8-MG-BA; Homo sapiens, 8-MG-BA",6.52 µM
same,IC50,"BB65-RCC; Homo sapiens, BB65-RCC",> 8 µM
same,IC50,"BT-474; Homo sapiens, BT-474",> 8 µM
same,IC50,"TE-12; Homo sapiens, TE-12",0.805 µM
same,IC50,"TGBC24TKB; Homo sapiens, TGBC24TKB",> 8 µM
same,IC50,"TGW; Homo sapiens, TGW",> 8 µM
same,IC50,no-10; Homo sapiens,> 8 µM
same,IC50,"COLO-668; Homo sapiens, COLO-668",> 8000 nM
BLEOMYCIN,IC50,CP66-MEL; cp66-mel,957 µM
same,IC50,CTV-1; ctv-1,4.92 µM
same,IC50,CW-2; cw-2,564 µM
same,IC50,DB; db,5.12 µM
same,IC50,DOHH-2; dohh-2,5.29 µM
same,IC50,EKVX; ekvx,413 µM
same,IC50,ES6; es6,0.406 µM
same,IC50,ETK-1; etk-1,0.0805 µM
same,IC50,EW-18; ew-18,75.8 µM
same,IC50,EOL1; eol1,2.42 µM
same,IC50,GCIY; gciy,12.8 µM
same,IC50,HT-144; ht-144,0.0551 µM
same,IC50,HuTu80; hutu-80,0.000136 µM
same,IC50,IST-MEL1; ist-mel1,0.28 µM
same,IC50,JVM-3; jvm-3,429 µM
same,IC50,KGN; kgn,0.00371 µM
same,IC50,KM12; km12,9.19 µM
same,IC50,KNS-42; kns-42,693 µM
same,IC50,KY821; ky821,471 µM
same,IC50,LB2241-RCC; lb2241-rcc,0.738 µM
same,IC50,Lu-65; lu-65,19.5 µM
same,IC50,MEG-01; meg-01,0.395 µM
same,IC50,MHH-PREB-1; mhh-preb-1,836 µM
same,IC50,MN-60; mn-60,4.05 µM
same,IC50,MOLT-4; molt-4,1.77 µM
same,IC50,MS-1; ms-1,156 µM
same,IC50,MV4-11; mv-4-11,0.00991 µM
same,IC50,MZ1-PC; mz1-pc,0.224 µM
same,IC50,NB5; nb5,6.72 µM
same,IC50,NB6; nb6,430 µM
same,IC50,NCI-H1092; nci-h1092,160 µM
same,IC50,NCI-H1155; nci-h1155,73.2 µM
same,IC50,NEC8; nec8,0.0269 µM
same,IC50,NKM-1; nkm-1,0.00765 µM
same,IC50,NOMO-1; nomo-1,4.2 µM
same,IC50,OMC-1; omc-1,11.9 µM
same,IC50,RKO; rko,0.524 µM
same,IC50,RXF 393; rxf 393,176 µM
same,IC50,SF-268; sf-268,1.32 µM
same,IC50,SK-N-FI; sk-n-fi,2100 µM
same,IC50,SW684; sw684,3870 µM
same,IC50,SW982; sw982,0.417 µM
same,IC50,8-MG-BA; 8-mg-ba,1.48 µM
same,IC50,BB65-RCC; bb65-rcc,21.4 µM
same,IC50,BT-474; bt-474,2080 µM
same,IC50,TE-12; te-12,0.719 µM
same,IC50,TGBC24TKB; tgbc24tkb,204 µM
same,IC50,TGW; tgw,65.8 µM
same,IC50,no-10,27.1 µM
same,IC50,COLO-668; colo-668,0.0218 nM
